Read-outs that look alike come from different tables or passages of the source.
What was measured:
[1] = tested on: granulocyte; conditions: hairy cell leukemia, cited from earlier work
[2] = tested on: neutrophils; conditions: cutaneous T cell lymphoma, 0.1 mg/kg per day over 7 days; cited from earlier work
[3] = tested on: malignant astrocytoma; assay: Phase I study, tumor response in malignant astrocytoma; assay type: in vivo, human
Excerpt: (§1) A response to this treatment process can be determined according to the criteria proposed by Macdonald et al., J. Clin. Oncol., 8:1277-1280 (1990). A complete response requires the disappearance of all enhancing tumor on consecutive CAT or MRI scans at least one month apart, off steroids, and that the patient be neurologically stable or improved. A partial response is defined as a greater or equal to 50 percent decrease in size (largest cross-sectional area) of enhancing tumor on consecutive CAT or MRI scans at least one month apart, steroids stable or reduced, and that the patient be neurologically stable or improved. All other tumor responses were designated as no response.
(§2) The patients received continuous infusions of either 0.10, 0.15 or 0.20 mg/kg/day over seven day time periods in up to five monthly cycles. The patients with malignant astrocytomas received either 0.10 or 0.15 mg/kg/day; none receiving 0.20 mg/kg/day.
(§3) The finally diluted solution was infused through central venus access using an infusion pump device (Pharmacia Deltec Cadd) for out-patients, or infused by usual venus infusion for in-patients.
(§4) Each of the patients, except three (one renal cell carcinoma and two malignant melanoma) patients, had received a prior treatment. Each of the patients with malignant astrocytoma had been treated both surgically and with X-rays or by chemotherapy.

[4] = tested on: CML in blast crisis; conditions: cited from earlier work
[5] = tested on: granulocyte; assay: Clinical treatment of multiple sclerosis, granulocyte counts; assay type: in vivo, human; conditions: about 0.1 mg/kg/day, seven day courses of continuous infusion, after several courses
[6] = tested on: neutrophils; conditions: chronic lymphocytic leukemia, serum levels less than 10 nM, in most cases; cited from earlier work
[7] = tested on: renal cell carcinoma; assay: Phase I study, tumor response in renal cell carcinoma; assay type: in vivo, human; conditions: two patients
Excerpt: as §1, §2, §3, §4

[8] = tested on: malignant melanoma; assay: Phase I study, tumor response in malignant melanoma; assay type: in vivo, human; conditions: twelve patients
Excerpt: as §1, §2, §3, §4

[9] = tested on: Mature BFU-E (mBFU-E) cells; conditions: read-out: IC50 (concentration required to inhibit 50 percent of growth); mBFU-E cells from normal patients; cited from earlier work
[10] = tested on: colony forming unit-erythroid (CFU-E) cells; conditions: read-out: IC50 (concentration required to inhibit 50 percent of growth); CFU-E cells from normal patients; cited from earlier work
[11] = Phase I study, toxicity; assay type: in vivo, human
Method: as §2, §3

[12] = tested on: Colony forming unit-granulocyte macrophage (CFU-GM) cells; conditions: read-out: IC50 (concentration required to inhibit 50 percent of growth); CFU-GM cells from normal patients; cited from earlier work
[13] = tested on: CFU-GM cells; conditions: 100 nM 2-CdA; cited from earlier work
[14] = tested on: Erythroid progenitor cells; conditions: cultured marrow and blood cells from normal patients; cited from earlier work
[15] = tested on: Primitive burst-forming unit-erythroid (pBFU-E) cells; conditions: read-out: IC50 (concentration required to inhibit 50 percent of growth); pBFU-E cells from normal patients; cited from earlier work

## Nc1nc(Cl)nc2c1ncn2[C@H]1C[C@H](O)[C@@H](CO)O1 [2-CdA, 2-chloro-2'-deoxyadenosine]
[1]; transient neutropenia
  granulocyte counts: under 500 per microliter
[1]; particularly acute in patients already neutropenic
  neutropenia: transient neutropenia
[2]
  resistance of neutrophils relative to monocytes and lymphocytes: more resistant to 2-CdA than their monocytes and lymphocytes
[3]; patient No. 1, grade 2 astrocytoma, four cycles at 0.10 mg/kg/day
  duration of partial response: seven
[3]; patient No. 1, intravenous contrast
  coronal MRI of brain after treatment: resolution of tumor enhancement
[3]; patient No. 12
  axial spin echo MRI of brain after treatment: complete regression of the edema and shrinkage of the cyst
  cyst on sagittal T1-weighted imaging after treatment: smaller in size and higher in signal intensity
  sagittal T1-weighted imaging of brain after treatment: complete regression of the temporal lobe swelling, with restoration of a normal sulcal pattern
[3]; patient No. 12, GBM, five cycles at 0.15 mg/kg/day
  duration of partial response: nine
[3]; two of seven malignant astrocytoma patients, 0.1 or 0.15 mg/kg/day
  responding patients (partial response): 28.6%
[3]; two responding patients
  median duration of partial response: eight
[4]; another of two patients
  detectable tumor: loss of detectable tumor
[4]; one of two patients
  blast count: decrease in blast count
[5]
  granulocyte counts: substantially unchanged
[6]
  neutrophil count: increase in neutrophil count
[7]
  patients with partial response: None
[8]
  patients with partial response: None
[9]
  IC50: 38 nM
[10]
  IC50: 56 nM
[11]; 0.10 mg/kg/day
  myelosuppression per cycles: 1/18
[11]; 0.15 mg/kg/day
  myelosuppression per cycles: 5/22
[11]; 0.20 mg/kg/day
  myelosuppression per cycles: 3/4
[11]; 0.10, 0.15, 0.20 mg/kg/day
  myelosuppression, dose dependence: increased with dosage
[11]; all patients
  principal toxic effect: Myelosuppression
[11]; any patient of the study
  alopecia, nausea, vomiting, cardiopulmonary, renal or hepatic toxicity: No alopecia, nausea, vomiting, cardiopulmonary, renal or hepatic toxicity occurred
[11]; in vivo
  myelosuppression in patients with previous biologic therapy: all of the patients with previous biologic therapy treatment developed myelosuppression
  patients with prior chemotherapy among those who developed myelosuppression: five of eight
  patients with prior chemotherapy among those without myelosuppression: two of thirteen
[11]; interferon, interleukin-2, or lymphocyte-activated killer cells
  patients with prior biologic therapies among those exhibiting myelosuppression: Four of the eight
[11]; malignant astrocytoma (GBM), seven patients
  patients exhibiting myelosuppression: Two of the seven
[11]; malignant melanoma with prior therapy, unknown whether directly from 2-CdA
  patients exhibiting delayed neurotoxicities: Two
[11]; one astrocytoma patient with prior surgical and X-ray treatments, after the fifth cycle
  type of myelosuppression: both neutropenia and thrombocytopenia
[11]; prior exposure to systemic chemotherapy
  myelosuppression (grades 3 or 4 neutropenia or thrombocytopenia), frequency by pretreatment: more frequent in patients having had prior exposure to systemic chemotherapy
[12]
  IC50: 16 nM
[13]
  reduction of growth of CFU-GM cells: 60%
[14]
  sensitivity of erythroid progenitor cells to 2-CdA: dose-dependent sensitivity to 2-CdA, with that sensitivity decreasing as the stage of progenitor maturation increased
[15]
  IC50: 19 nM

Reference: patent publication US5424296A, “2-Halo-2'-deoxyadenosines as therapeutic agents against malignant astrocytoma” (The Scripps Research Institute, priority 1993, dated 1995)
